Test results published in patent US10471076B2, “Compositions and methods to treat vision disorders” (YouHealth Biotech, Limited, priority 2014, dated 2019).
Entries after “also recorded” stand apart in the source; their conditions may differ.

What was measured:
[1] = tested on: cataract-causing mutant crystallin proteins; assay: Intracellular aggregation of mutant crystallins in HLEB-3 cells; format: cell-based, human; settings: then 12 h
Description: (§1) FIG. 9A, FIG. 9B, and FIG. 9C show inhibition of crystallin mutant aggregation by wild-type LSS and lanosterol in HLEB-3 cells (FIG. 9A) or HeLa cells (FIG. 9B). Cells co-transfected with LSS and crystallin mutant constructs were cultured for 24 h before assaying for aggregates. The rescue experiments were performed by addition of 40 […] μM sterols (lanosterol or cholesterol) to the cell culture medium for 2 h, the sterol medium was then replaced with fresh culture medium and the cells were cultured for a further 12 h. The percentage of cells with crystallin aggregates were calculated from ten randomly selected viewing fields. The values of the wild-type LSS group, mutant group, or mutant plus lanosterol group were calculated. […] After transfection for 4 h and incubation in fresh culture medium for another 24 h, the cells were lysed and centrifuged to separate supernatant and insoluble fractions. LSS and crystallin fusion proteins were detected by antibodies against Flag and GFP, respectively. Red arrows indicate higher crystalline content in the soluble fraction versus in the insoluble fraction in cells containing the WT-LSS.
(§2) Cells were transfected with various crystallin constructs for 4 h and cultured for an additional 24 h in fresh culture medium. Then the cells were treated with 10, 20 and 40 μM lanosterol in 1% (HLEB-3 cells) or 2% DMSO (HeLa cells) for 2 h and cultured for another 12 h. Cells treated with 1% (HLEB-3 cells) or 2% DMSO (HeLa cells) were used as the controls. Formation of intracellular aggregates of various crystallin proteins was visualized by fluorescence of GFP (green) and the nuclei were stained with Hoechst 33342 (blue). Typical intracellular aggregates are indicated by arrows.
(§3) The impact of LSS and lanosterol on intracellular crystallin aggregation were evaluated in single-blinded observer studies. Experiments have been repeated at least three times. P values were calculated using Student's t-tests. Fluorescence microscopy. […]

[2] = tested on: cataract-causing mutant crystallin proteins; assay: Intracellular aggregation of mutant crystallins in HeLa cells; format: cell-based, human; settings: then 12 h
Description: as §1, §2, §3

[3] = tested on: cataract-causing mutant crystallins; assay: Western blot of soluble and insoluble fractions of cell lysates; format: cell-based; settings: human lens progenitor cells, n=3, P<0.001
From the text: The cells were harvested and lysed. Supernatant and insoluble fractions were separated by centrifugation and analyzed by western blot analysis. LSS and crystallin fusion proteins were identified by antibodies against Flag and GFP tags, respectively. The lanosterol-treated group is highlighted by red boxes. Cells treated with 1% DMSO were used as a control. β-Actin was used as an internal protein loading control of total cell lysates (TCL). S, supernatant; P, insoluble fraction. […] Crystallin aggregates were formed by incubating 5 mg ml^−1 protein solution at 60° C. for 2 h (α-crystallins) or 37° C. for 48 h (β- and γ-crystallins) in the presence of 1 M guanidine chloride. The preformed aggregates were re-suspended in PBS at a final protein concentration of 0.2 mg ml^−1 and were treated with 500 μM sterols in 500 μM DPPC liposome and incubated at 37° C. for 24 h. […] Aggregates treated with 500 μM DPPC liposome only were used as the controls.
LC-MS analysis. […] The derived samples were analyzed by an Agilent 1290/6460 triple quadrupole LC/MS using an alternative Atmospheric Pressure Chemical Ionisation (APCI) source. […] Quantification of the western blot bands was achieved using the software GELPRO (Media Cybernetics). The presented quantitative data were calculated from three independent experiments.

SMILES: CC(C)=CCC[C@@H](C)[C@H]1CC[C@@]2(C)C3=C(CC[C@]12C)[C@@]1(C)CC[C@H](O)C(C)(C)[C@@H]1CC3 [lanosterol, 3β-Hydroxy-8,24-lanostadiene; 8,24-Lanostadien-3β-ol]
- percentage of cells with crystallin aggregates versus control group (rescue) ([1]; HLEB-3 cells co-transfected with LSS and crystallin mutant, 40 μM sterols 2 h, lanosterol P<1×10^−4, cholesterol P>0.1): significantly lower
- intracellular aggregation caused by cataract-causing mutant crystallin proteins ([1]; HLEB-3 cells, 10, 20 and 40 μM lanosterol in 1% DMSO for 2 h, concentration-dependent): significantly reduced the intracellular aggregation
- percentage of cells with crystallin aggregates versus control group (rescue) ([2]; HeLa cells co-transfected with LSS and crystallin mutant, 40 μM sterols 2 h, lanosterol P<1×10^−4, cholesterol P>0.1): significantly lower
- intracellular aggregation caused by cataract-causing mutant crystallin proteins ([2]; HeLa cells, 10, 20 and 40 μM lanosterol in 2% DMSO for 2 h, concentration-dependent): significantly reduced the intracellular aggregation
- amount of mutant crystallins in the soluble fractions of cell lysates [3]: increased the amounts of mutant crystallins in the soluble fractions; also recorded: increased cataract-causing mutant crystallins in soluble fractions
